Reference: ChEMBL document CHEMBL1201862, “PubChem BioAssay data set” (2004)
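Cells were grown in 96-well plates and exposed to each compound for 48 hours at five concentrations; endpoints were interpolated linearly between bracketing concentrations, or set to the highest concentration if not reached. Here, GI50 denotes the concentration required for 50% inhibition of growth.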 Calls of active or inactive are those of the source. No stated cut-off is given here; in the data, active = GI50 up to about 1.1 µM and inactive = higher.

How the values were obtained:
Test in all cases: NCI tumour cell line growth inhibition, 48 h
A498 = tested on: A498
IGROV-1 = tested on: IGROV-1
MOLT-4 = tested on: MOLT-4
Hs-578T = tested on: Hs-578T
MDA-N = tested on: MDA-N
NCI-H226 = tested on: NCI-H226
MCF7 = tested on: MCF7
K562 = tested on: K562
UACC-62 = tested on: UACC-62
HCC 2998 = tested on: HCC 2998
SR = tested on: SR
NCI-H23 = tested on: NCI-H23
OVCAR-8 = tested on: OVCAR-8
BT-549 = tested on: BT-549
MDA-MB-231 = tested on: MDA-MB-231
SK-MEL-5 = tested on: SK-MEL-5
RPMI-8226 = tested on: RPMI-8226
HCT-15 = tested on: HCT-15
MDA-MB-435 = tested on: MDA-MB-435
U-251 = tested on: U-251
OVCAR-3 = tested on: OVCAR-3
HOP-62 = tested on: HOP-62
A549 = tested on: A549
EKVX = tested on: EKVX
CAKI-1 = tested on: CAKI-1
OVCAR-5 = tested on: OVCAR-5
SNB-19 = tested on: SNB-19
SF-268 = tested on: SF-268
DU-145 = tested on: DU-145
M14 = tested on: M14
HT-29 = tested on: HT-29
PC-3 = tested on: PC-3
HCT-116 = tested on: HCT-116
NCI/ADR-RES = tested on: NCI/ADR-RES
SW-620 = tested on: SW-620
UACC-257 = tested on: UACC-257
LOX IMVI = tested on: LOX IMVI
ACHN = tested on: ACHN
OVCAR-4 = tested on: OVCAR-4
SK-MEL-28 = tested on: SK-MEL-28
CCRF-CEM = tested on: CCRF-CEM
KM12 = tested on: KM12
SN12C = tested on: SN12C
786-0 = tested on: 786-0
SK-OV-3 = tested on: SK-OV-3
NCI-H522 = tested on: NCI-H522
UO-31 = tested on: UO-31
HOP-92 = tested on: HOP-92
SF-295 = tested on: SF-295
SF-539 = tested on: SF-539
T47D = tested on: T47D
COLO 205 = tested on: COLO 205
TK-10 = tested on: TK-10
SK-MEL-2 = tested on: SK-MEL-2
RXF 393 = tested on: RXF 393
SNB-75 = tested on: SNB-75
HL-60 = tested on: HL-60
NCI-H460 = tested on: NCI-H460
Malme-3M = tested on: Malme-3M

With `CC(=O)N[C@@H](Cc1ccc(O)cn1)C(=O)NC1CCCCC1` the GI50 (A498) was > 100 µM (inactive), the GI50 (IGROV-1) was > 100 µM (inactive) and the GI50 (MOLT-4) was > 100 µM (inactive). For the same molecule, the GI50 (Hs-578T) was > 100 µM (inactive), the GI50 (MDA-N) was > 100 µM (inactive) and the GI50 (NCI-H226) was > 100 µM (inactive). For the same molecule, the GI50 (MCF7) was > 100 µM (inactive), the GI50 (K562) was > 100 µM (inactive) and the GI50 (UACC-62) was > 100 µM (inactive). The GI50 (HCC 2998) was > 100 µM (inactive), the GI50 (SR) was > 100 µM (inactive) and the GI50 (NCI-H23) was > 100 µM (inactive). For the same molecule, the GI50 (OVCAR-8) was > 100 µM (inactive), the GI50 (BT-549) was > 100 µM (inactive) and the GI50 (MDA-MB-231) was > 100 µM (inactive). For the same molecule, the GI50 (SK-MEL-5) was > 100 µM (inactive), the GI50 (RPMI-8226) was > 100 µM (inactive) and the GI50 (HCT-15) was > 100 µM. The GI50 (MDA-MB-435) was > 100 µM (inactive), the GI50 (U-251) was > 100 µM (inactive) and the GI50 (OVCAR-3) was > 100 µM (inactive). The GI50 (HOP-62) was > 100 µM (inactive), the GI50 (A549) was > 100 µM (inactive) and the GI50 (EKVX) was > 100 µM (inactive). The GI50 (CAKI-1) was > 100 µM (inactive), the GI50 (OVCAR-5) was > 100 µM (inactive) and the GI50 (SNB-19) was > 100 µM (inactive). For the same molecule, the GI50 (SF-268) was > 100 µM (inactive), the GI50 (DU-145) was > 100 µM (inactive) and the GI50 (M14) was > 100 µM (inactive). The GI50 (HT-29) was > 100 µM (inactive), the GI50 (PC-3) was > 100 µM (inactive) and the GI50 (HCT-116) was > 100 µM (inactive). The GI50 (NCI/ADR-RES) was > 100 µM (inactive), the GI50 (SW-620) was > 100 µM (inactive) and the GI50 (UACC-257) was > 100 µM (inactive). For the same molecule, the GI50 (LOX IMVI) was > 100 µM (inactive), the GI50 (ACHN) was > 100 µM (inactive) and the GI50 (OVCAR-4) was > 100 µM (inactive). For the same molecule, the GI50 (SK-MEL-28) was > 100 µM (inactive), the GI50 (CCRF-CEM) was > 100 µM (inactive) and the GI50 (KM12) was > 100 µM (inactive). The GI50 (SN12C) was > 100 µM (inactive), the GI50 (786-0) was > 100 µM (inactive) and the GI50 (SK-OV-3) was > 100 µM (inactive). For the same molecule, the GI50 (NCI-H522) was 30.3 µM (inactive), the GI50 (UO-31) was > 100 µM (inactive) and the GI50 (HOP-92) was > 100 µM (inactive). The GI50 (SF-295) was > 100 µM (inactive), the GI50 (SF-539) was > 100 µM (inactive) and the GI50 (T47D) was > 100 µM (inactive). The GI50 (COLO 205) was > 100 µM (inactive), the GI50 (TK-10) was > 100 µM (inactive) and the GI50 (SK-MEL-2) was > 100 µM (inactive).

`COc1ccc(C(C)NNC(=O)c2ccncc2)cc1F` (configuration not stated) was tested, and the GI50 (A498) was > 100 µM (inactive), the GI50 (IGROV-1) was > 100 µM (inactive) and the GI50 (MOLT-4) was > 100 µM (inactive). The GI50 (Hs-578T) was > 100 µM (inactive), the GI50 (MDA-N) was > 100 µM (inactive) and the GI50 (NCI-H226) was > 100 µM (inactive). The GI50 (MCF7) was > 100 µM (inactive), the GI50 (K562) was > 100 µM (inactive) and the GI50 (UACC-62) was > 100 µM (inactive). The GI50 (HCC 2998) was > 100 µM (inactive), the GI50 (SR) was > 100 µM (inactive) and the GI50 (RXF 393) was > 100 µM (inactive). The GI50 (NCI-H23) was > 100 µM (inactive), the GI50 (OVCAR-8) was > 100 µM (inactive) and the GI50 (BT-549) was > 100 µM (inactive). For the same molecule, the GI50 (MDA-MB-231) was > 100 µM (inactive), the GI50 (SK-MEL-5) was > 100 µM (inactive) and the GI50 (RPMI-8226) was > 100 µM (inactive). The GI50 (HCT-15) was > 100 µM, the GI50 (MDA-MB-435) was > 100 µM (inactive) and the GI50 (U-251) was > 100 µM (inactive). For the same molecule, the GI50 (OVCAR-3) was > 100 µM (inactive), the GI50 (HOP-62) was > 100 µM (inactive) and the GI50 (A549) was > 100 µM (inactive). The GI50 (EKVX) was > 100 µM (inactive), the GI50 (CAKI-1) was > 100 µM (inactive) and the GI50 (OVCAR-5) was > 100 µM (inactive). The GI50 (SNB-19) was > 100 µM (inactive), the GI50 (SF-268) was > 100 µM (inactive) and the GI50 (DU-145) was > 100 µM (inactive). For the same molecule, the GI50 (M14) was > 100 µM (inactive), the GI50 (HT-29) was > 100 µM (inactive) and the GI50 (PC-3) was > 100 µM (inactive). For the same molecule, the GI50 (HCT-116) was > 100 µM (inactive), the GI50 (NCI/ADR-RES) was > 100 µM (inactive) and the GI50 (SW-620) was > 100 µM (inactive). The GI50 (UACC-257) was > 100 µM (inactive), the GI50 (LOX IMVI) was > 100 µM (inactive) and the GI50 (SNB-75) was > 100 µM (inactive). For the same molecule, the GI50 (ACHN) was > 100 µM (inactive), the GI50 (OVCAR-4) was > 100 µM (inactive) and the GI50 (HL-60) was > 100 µM (inactive). The GI50 (NCI-H460) was > 100 µM (inactive), the GI50 (SK-MEL-28) was > 100 µM (inactive) and the GI50 (CCRF-CEM) was > 100 µM (inactive). The GI50 (KM12) was > 100 µM (inactive), the GI50 (SN12C) was > 100 µM (inactive) and the GI50 (786-0) was > 100 µM (inactive). For the same molecule, the GI50 (SK-OV-3) was > 100 µM (inactive), the GI50 (UO-31) was > 100 µM (inactive) and the GI50 (HOP-92) was > 100 µM (inactive). For the same molecule, the GI50 (SF-295) was > 100 µM (inactive), the GI50 (SF-539) was > 100 µM (inactive) and the GI50 (T47D) was > 100 µM (inactive). The GI50 (Malme-3M) was > 100 µM (inactive), the GI50 (COLO 205) was > 100 µM (inactive) and the GI50 (TK-10) was > 100 µM (inactive). The GI50 (SK-MEL-2) was > 100 µM (inactive).

For `C=C1C/C(=C/C)C(=O)O[C@@H]2CCN3CC=C(COC(=O)[C@]1(C)O)[C@H]23` [SENECIPHYLLINE], the GI50 (A498) was > 100 µM (inactive), the GI50 (IGROV-1) was > 100 µM (inactive) and the GI50 (Hs-578T) was > 100 µM (inactive). The GI50 (MDA-N) was > 100 µM (inactive), the GI50 (NCI-H226) was 35.5 µM (inactive) and the GI50 (MCF7) was > 100 µM (inactive). For the same molecule, the GI50 (K562) was > 100 µM (inactive), the GI50 (UACC-62) was > 100 µM (inactive) and the GI50 (HCC 2998) was > 100 µM (inactive). The GI50 (SR) was > 100 µM (inactive), the GI50 (NCI-H23) was > 100 µM (inactive) and the GI50 (OVCAR-8) was > 100 µM (inactive). The GI50 (BT-549) was > 100 µM (inactive), the GI50 (MDA-MB-231) was > 100 µM (inactive) and the GI50 (SK-MEL-5) was > 100 µM (inactive). For the same molecule, the GI50 (RPMI-8226) was > 100 µM (inactive), the GI50 (HCT-15) was > 100 µM and the GI50 (MDA-MB-435) was > 100 µM (inactive). For the same molecule, the GI50 (U-251) was > 100 µM (inactive), the GI50 (OVCAR-3) was > 100 µM (inactive) and the GI50 (HOP-62) was > 100 µM (inactive). For the same molecule, the GI50 (A549) was > 100 µM (inactive), the GI50 (EKVX) was > 100 µM (inactive) and the GI50 (CAKI-1) was > 100 µM (inactive). For the same molecule, the GI50 (OVCAR-5) was > 100 µM (inactive), the GI50 (SNB-19) was > 100 µM (inactive) and the GI50 (SF-268) was > 100 µM (inactive). For the same molecule, the GI50 (DU-145) was > 100 µM (inactive), the GI50 (M14) was > 100 µM (inactive) and the GI50 (HT-29) was > 100 µM (inactive). For the same molecule, the GI50 (PC-3) was > 100 µM (inactive), the GI50 (HCT-116) was > 100 µM (inactive) and the GI50 (NCI/ADR-RES) was > 100 µM (inactive). The GI50 (SW-620) was > 100 µM (inactive), the GI50 (UACC-257) was > 100 µM (inactive) and the GI50 (LOX IMVI) was > 100 µM (inactive). For the same molecule, the GI50 (SNB-75) was > 100 µM (inactive), the GI50 (ACHN) was > 100 µM (inactive) and the GI50 (OVCAR-4) was > 100 µM (inactive). For the same molecule, the GI50 (HL-60) was > 100 µM (inactive), the GI50 (NCI-H460) was 84.9 µM (inactive) and the GI50 (SK-MEL-28) was > 100 µM (inactive). For the same molecule, the GI50 (CCRF-CEM) was > 100 µM (inactive), the GI50 (KM12) was > 100 µM (inactive) and the GI50 (786-0) was > 100 µM (inactive). For the same molecule, the GI50 (SK-OV-3) was > 100 µM (inactive), the GI50 (NCI-H522) was > 100 µM (inactive) and the GI50 (UO-31) was > 100 µM (inactive). For the same molecule, the GI50 (HOP-92) was > 100 µM (inactive), the GI50 (SF-295) was > 100 µM (inactive) and the GI50 (SF-539) was > 100 µM (inactive). For the same molecule, the GI50 (T47D) was > 100 µM (inactive), the GI50 (COLO 205) was > 100 µM (inactive) and the GI50 (TK-10) was > 100 µM (inactive). The GI50 (SK-MEL-2) was > 100 µM (inactive).
